# Earlier results as cited in patent US20220218877A1, “C[…] COMPOSITIONS” ([…], priority 2019, published 2022).
# Conditions: depending upon the conditions
row,Compound,Solubility in aqueous solutions
1,"CCCCCc1cc(O)c2c(c1)OC(C)(C)[C@@H]1CCC(C)=C[C@@H]21 [THC, tetrahydrocannabinol]",a few micrograms/ml or less
2,CCCCCc1cc(O)c2c(c1)OC(C)(C)c1ccc(C)cc1-2 [cannabinol],a few micrograms/ml or less
3,cannabidiol [CBD],a few micrograms/ml or less
